The results in this text go back to patent US6124269A, “2-Halo-6-O-substituted ketolide derivatives” (priority 1998, dated 2000).

Converted amounts (≈) assume the structure as drawn. “And” between values parts separate entries of the source, which are not always exact repeats. Equal entries are not always repeated. Bounds are passed on as bounds.

Common to all, as to assay type: cell-based
In assay [1] the test system is Streptococcus pneumoniae ATCC 6303. Kind of assay: In vitro agar dilution MIC, organism code XX. Particulars: unit assumed. On the procedure: (§1) Representative compounds of the present invention were assayed in vitro for antibacterial activity as follows: Twelve petri dishes containing successive aqueous dilutions of the test compound mixed with 10 mL of sterilized Brain Heart Infusion (BHI) agar (Difco 0418-01-5) were prepared. Each plate was inoculated with 1:100 (or 1:10 for slow-growing strains, such as Micrococcus and Streptococcus) dilutions of up to 32 different microorganisms, using a Steers replicator block. The inoculated plates were incubated at 35-37° C. for 20 to 24 hours. In addition, a control plate, using BHI agar containing no test compound, was prepared and incubated at the beginning and end of each test.
(§2) An additional plate containing a compound having known susceptibility patterns for the organisms being tested and belonging to the same antibiotic class as the test compound was also prepared and incubated as a further control, as well as to provide test-to-test comparability.
(§3) After incubation, each plate was visually inspected. The minimum inhibitory concentration (MIC) was defined as the lowest concentration of drug yielding no growth, a slight haze, or sparsely isolated colonies on the inoculum spot as compared to the growth control.

Assay [2] deals with Streptococcus pneumoniae 5649. The assay can be described thus: In vitro agar dilution MIC, organism code ZZA. The following applies: unit assumed. On the procedure: as §1, §2, §3
For orientation: In agar dilution, organisms are placed on agar that contains the substance at set levels.

In assay [3] the test system is Haemophilis influenzae DILL AMP R. The assay can be described thus: In vitro agar dilution MIC, organism code WW. The following applies: unit assumed. On the procedure:
as §1, §2, §3

In assay [4] the test system is Streptococcus pyogenes EES61. Kind of assay: In vitro agar dilution MIC, organism code LL. Particulars: unit assumed. Here is the method: as §1, §2, §3
The test system of assay [5] is Streptococcus pneumoniae 5979. Kind of assay: In vitro agar dilution MIC, organism code ZZ. The following applies: Table 1D, unit assumed. Here is the method: as §1, §2, §3
For assay [6], the system named is Streptococcus pyogenes 930. The assay can be described thus: In vitro agar dilution MIC, organism code MM. Particulars: unit assumed. On the procedure: as §1, §2, §3
Assay [7] deals with Streptococcus pyogenes PIU 2548. Kind of assay: In vitro agar dilution MIC, organism code NN. Particulars: Table 1D, unit assumed. On the procedure:
as §1, §2, §3

Assay [8] concerns Staphylococcus aureus A-5278. The assay can be described thus: In vitro agar dilution MIC, organism code CC. The following applies: Table 1B, unit assumed. On the procedure: as §1, §2, §3
The test system of assay [9] is Enterococcus faecium ATCC 8043. The assay can be described thus: In vitro agar dilution MIC, organism code II. The following applies: Table 1B, unit assumed. On the procedure: as §1, §2, §3
Assay [10] relates to Micrococcus luteus ATCC 9341. The assay can be described thus: In vitro agar dilution MIC, organism code OO. The following applies: Table 1B, unit assumed. Here is the method: as §1, §2, §3
The test system of assay [11] is Nocardia asteroides ATCC 9970. Kind of assay: In vitro agar dilution MIC, organism code VV. The following applies: Table 1B, in µg/mL (unit assumed). On the procedure: as §1
An additional plate containing a compound having known susceptibility patterns for the organisms being tested and belonging to the same antibiotic class as the test compound was also prepared and incubated as a further control, as well as to provide test-to-test comparability. Erythromycin A was used for this purpose.
as §3

Assay [12] has as its system Staphylococcus aureus 1775. Kind of assay: In vitro agar dilution MIC, organism code GG. Particulars: Table 1B, unit assumed. Here is the method:
as §1, §2, §3

The subject of assay [13] is Staphylococcus aureus NCTC10649M. The assay can be described thus: In vitro agar dilution MIC, organism code EE. Particulars: Table 1B, unit assumed. On the procedure:
as §1, §2, §3

The test system of assay [14] is Staphylococcus epidermidis 3519. Kind of assay: In vitro agar dilution MIC, organism code HH. The following applies: Table 1B, in µg/mL (unit assumed). Here is the method:
as §1, §2, §3

A further assay relates to Candida albicans CCH 442. The assay can be described thus: In vitro agar dilution MIC, organism code TT. The following applies: Table 1B, unit assumed. Here is the method:
as §1, §2, §3

Assay [15] has as its system Streptococcus agalactiae CMX 508. The assay can be described thus: In vitro agar dilution MIC, organism code KK. The following applies: Table 1B, unit assumed. Here is the method:
as §1, §2, §3

Assay [16] has as its system Staphylococcus aureus ATCC 6538P. The assay can be described thus: In vitro agar dilution MIC, organism code AA. Particulars: Table 1B, unit assumed. On the procedure:
as §1, §2, §3

The next assay concerns Escherichia coli SS. Kind of assay: In vitro agar dilution MIC, organism code RR. Particulars: Table 1B, in µg/mL (unit assumed). On the procedure:
as §1, §2, §3

Another assay has as its system Escherichia coli DC-2. Kind of assay: In vitro agar dilution MIC, organism code SS. The following applies: Table 1B, unit assumed. On the procedure: as §1, §2, §3
For assay [17], the system named is Streptococcus bovis A-5169. Kind of assay: In vitro agar dilution MIC, organism code JJ. Particulars: Table 1B, unit assumed. Here is the method:
as §1, §2, §3

Assay [18] has as its system Streptococcus pneumoniae GYR 1171. The assay can be described thus: In vitro agar dilution MIC, organism code YY. Particulars: Table 1B, unit assumed. On the procedure: as §1, §2, §3
The test system of assay [19] is Micrococcus luteus ATCC 4698. Kind of assay: In vitro agar dilution MIC, organism code PP. Particulars: Table 1B, in µg/mL (unit assumed). On the procedure: as §1, §2, §3
The subject of a further assay is Escherichia coli JUHL. The assay can be described thus: In vitro agar dilution MIC, organism code QQ. Particulars: Table 1B, in µg/mL (unit assumed). Here is the method:
as §1, §2, §3

Assay [20] has as its system Staphylococcus aureus A5177. Kind of assay: In vitro agar dilution MIC, organism code BB. The following applies: Table 1B, in µg/mL (unit assumed). On the procedure: as §1, §2, §3
For assay [21], the system named is Mycobacterium smegmatis ATCC 114. The assay can be described thus: In vitro agar dilution MIC, organism code UU. The following applies: Table 1B, in µg/mL (unit assumed). Here is the method:
as §1, §2, §3

In assay [22] the test system is Staphylococcus aureus CMX 642A. The assay can be described thus: In vitro agar dilution MIC, organism code DD. The following applies: Table 1B, unit assumed. On the procedure: as §1, §2, §3
For assay [23], the system named is Staphylococcus aureus CMX 553. Kind of assay: In vitro agar dilution MIC, organism code FF. The following applies: Table 1B, unit assumed. On the procedure:
as §1, §2, §3

Regarding `CC[C@H]1OC(=O)[C@H](C)C(=O)[C@H](C)[C@@H](O[C@@H]2O[C@H](C)C[C@H](N(C)C)[C@H]2O)[C@](C)(OC/C=C/c2ccccc2)C[C@@H](C)C(=O)[C@H](C)[C@H]2NC(=O)O[C@@]21C` [Standard B, reference compound], the MIC was 0.03 µg/mL (≈ 0.042 µM) in [1] (Table 1D); 0.25 µg/mL (≈ 0.35 µM) in assay [2] (Table 1D); 4 µg/mL (≈ 5.6 µM) in [3] (Table 1D); 0.03 µg/mL (≈ 0.042 µM) in assay [4] (Table 1D); 128 µg/mL (≈ 179 µM) in assay [5]; 64 µg/mL (≈ 89.5 µM) in [6] (Table 1D). This compound displayed an MIC in [7] of 0.25 µg/mL (≈ 0.35 µM).
As for `CC[C@H]1OC(=O)[C@H](C)C(=O)[C@H](C)[C@@H](O[C@@H]2O[C@H](C)C[C@H](N(C)C)[C@H]2O)[C@](C)(OC/C=C/c2ccc3nccnc3c2)C[C@@H](C)C(=O)[C@H](C)[C@H]2NC(=O)O[C@@]21C` [Standard C, reference compound], the MIC came out at 0.015 µg/mL (≈ 0.0196 µM) in assay [1] (Table 1D); 0.5 µg/mL (≈ 0.652 µM) in assay [2] (Table 1D); 2 µg/mL (≈ 2.61 µM) in [3] (Table 1D); 0.03 µg/mL (≈ 0.0391 µM) in assay [4] (Table 1D); 64 µg/mL (≈ 83.4 µM) in assay [5]; 1 µg/mL (≈ 1.3 µM) in assay [6] (Table 1D). The MIC in assay [7] came to 0.25 µg/mL (≈ 0.326 µM).
On to `CC[C@H]1OC(=O)[C@H](C)[C@@H](O[C@H]2C[C@@](C)(OC)[C@@H](O)[C@H](C)O2)[C@H](C)[C@@H](O[C@@H]2O[C@H](C)C[C@H](N(C)C)[C@H]2O)[C@](C)(O)C[C@@H](C)C(=O)[C@H](C)[C@@H](O)[C@]1(C)O` [Ery. A, Erythromycin A, reference compound], for which the MIC in assay [8] is over 100 µg/mL; in assay [9], 0.05 µg/mL (≈ 0.0681 µM); in assay [1] (Table 1B), 0.06 µg/mL (≈ 0.0818 µM); in assay [10], 0.02 µg/mL (≈ 0.0273 µM); in assay [2] (Table 1B) it was 16 µg/mL (≈ 21.8 µM); in [11], 0.1 and 0.05. For the same compound, the MIC was over 100 µg/mL in [12]; 4 µg/mL (≈ 5.45 µM) in assay [3] (Table 1B); 0.39 µg/mL (≈ 0.531 µM) in assay [13]; 0.39 and 0.2 in assay [14]; over 100 µg/mL against Candida albicans CCH 442; 0.02 µg/mL (≈ 0.0273 µM) in assay [4] (Table 1B). For the same compound, the MIC in assay [15] is 0.05 µg/mL (≈ 0.0681 µM); in [16], 0.2 µg/mL (≈ 0.273 µM); in the assay with Escherichia coli SS, 0.78 and 0.39; against Escherichia coli DC-2, over 100 µg/mL; in [17], 0.02 µg/mL (≈ 0.0273 µM); in assay [18], 0.06 µg/mL (≈ 0.0818 µM). For the same compound, the MIC in assay [19] was 0.2 and 0.39; with Escherichia coli JUHL, > 100 and 50; in [6] (Table 1B) it was over 100 µg/mL; in assay [20], 3.1 and 6.2; in [21], 3.1 and 6.2; in assay [22], 0.39 µg/mL (≈ 0.531 µM). This compound also yielded an MIC in assay [23] of 0.39 µg/mL (≈ 0.531 µM).
Turning to `CC[C@H]1OC(=O)[C@H](C)C(=O)[C@H](C)[C@@H](O[C@@H]2O[C@H](C)C[C@H](N(C)C)[C@H]2O)[C@](C)(OC/C=C/c2cnc3ccccc3c2)C[C@@H](C)C(=O)[C@H](C)[C@H]2NC(=O)O[C@@]21C` [Standard A, reference compound], the MIC in [1] (Table 1D) turned out to be 0.03 µg/mL (≈ 0.0392 µM); in [2] (Table 1D) it was 0.25 µg/mL (≈ 0.326 µM); in assay [3] (Table 1D) it was 2 µg/mL (≈ 2.61 µM); in assay [4] (Table 1D), 0.03 µg/mL (≈ 0.0392 µM); in assay [5], 16 µg/mL (≈ 20.9 µM); in [6] (Table 1D), 1 µg/mL (≈ 1.31 µM). The same compound displayed an MIC in assay [7] of 0.25 µg/mL (≈ 0.326 µM).
